In US20220031738A1, “IRON FORMULATIONS FOR TOPICAL ADMINISTRATION AND METHODS OF TREATMENT OF IRON DEFICIENCY” (DYVE BIOSCIENCES, INC., priority 2018, published 2022):

Legend:
Type in all cases: in vivo
[1] = tested on: Anemic human patients with progressive renal insufficiency; assay: Topical vs oral vs intravenous iron supplementation in anemic patients with progressive renal insufficiency treated with erythropoietin
Experimental: In this experiment, iron (in the form of ferrous sulfate) in formulations of the invention was tested for its ability to treat anemia in patients with progressive renal insufficiency, and compared to orally or intravenously delivered iron supplementation.
In vivo tests were performed as follows: Anemic human patients with progressive renal insufficiency were treated with either topical, oral or intravenous iron supplementation and evaluated at baseline, 3 months and 6 months. Trial design was built to assess these primary outcomes: hemoglobin response, serum ferritin levels, changes in red cell hypochromasia, and incidence of adverse events. Treatment groups randomized as follows: • Oral iron supplement group (ferrous sulphate 200 mg tds) • Intravenous iron supplement group (300 mg iron sucrose monthly) • Topical iron supplement group (3.34 g of topical formulation applied tds) Formulations detailed below in Table 1 • In all groups Erythropoietin (rHuEpo) treatment was simultaneously commenced.

[2] = tested on: Anemic pregnant human patients; assay: Topical vs oral vs intravenous iron for anemia in pregnancy
Experimental: In this experiment, iron (in the form of ferrous sulfate) in formulations of the invention was tested for its ability to treat anemia in pregnant patients, and compared to orally or intravenously delivered iron supplementation.
In vivo tests were performed as follows: Anemic pregnant human patients were treated with either topical, oral or intravenous iron supplementation during 14 to 34 weeks of pregnancy. Trial design was built to assess these primary outcomes: haemoglobin and serum ferritin levels. Treatment groups randomized as follows: • a. Oral iron supplement group (200 mg of ferrous fumarate per day) • b. Intravenous iron supplement group (200 mg of iron sucrose was administered in 100 ml 0.9% sodium chloride per day) • c. Topical iron supplement group (3.34 g of topical formulation applied per day) Formulations detailed in Table 3 below

[3] = tested on: Anemic human patients with progressive renal insufficiency; assay: Topical vs oral vs intravenous iron for iron deficiency in non-hemodialysis-dependent patients with chronic kidney disease; conditions: oral = ferrous sulphate 325 mg thrice daily; intravenous ferric carboxymaltose; topical = 5.42 g Table 2 formulation tds
Experimental: In this experiment, iron (in the form of ferrous sulfate) in formulations of the invention was tested for its ability to treat iron deficiency in non-hemodialysis dependent patients with chronic kidney disease, and compared to orally or intravenously delivered iron supplementation.
In vivo tests were performed as follows: Anemic human patients with progressive renal insufficiency were treated with either topical, oral or intravenous iron supplementation. Trial design was built to assess these primary outcomes: hemoglobin response, and incidence of adverse events. Treatment groups randomized as follows: • a. Oral iron supplement group (ferrous sulphate 325 mg thrice daily for a total of 195 mg elemental iron daily) • b. Intravenous iron supplement group (intravenous ferric carboxymaltose 1000 mg over 15 min (with up to two additional doses of 500 mg at 2-week intervals)) • c. Topical iron supplement group (5.42 g of topical formulation applied tds) Formulations detailed in Table 2 below.

[4] = tested on: human IBD patients with anemia; assay: Topical vs oral vs intravenous iron for anemia in inflammatory bowel disease
Experimental: In this experiment, iron (in the form of ferrous sulfate) in formulations of the invention was tested for its ability to help treat anemia in inflammatory bowel disease (IBD) patients and compared to orally or intravenously delivered iron supplementation.
In vivo tests were performed as follows: human IBD patients with anemia were treated with either topical, oral or intravenous iron supplementation for 12 weeks. Trial design was built to assess this primary outcome: change in hemoglobin (Hb) from baseline to week 12. Treatment groups randomized as follows: • a. Oral iron supplement group (FeSulf containing 100 mg ferrous iron (II). Patients received one capsule b.i.d. for 12 wk) • b. Intravenous iron supplement group (ferric carboxymaltose (FeCarb) 50 mg ferric iron (III) per milliliter in water with individual patient dosage calculated according to the formula of Ganzoni) • c. Topical iron supplement group (1.67 g of topical formulation applied b.i.d.) Formulations detailed in Table 5 below

[5] = tested on: human iron-depleted, nonanemic women; assay: Topical vs oral iron to improve endurance after training in iron-depleted, nonanemic women; conditions: oral = ferrous sulfate 100 mg per day
Experimental: In this experiment, iron (in the form of ferrous sulfate) in formulations of the invention was tested for its ability to help improve endurance after training in iron-depleted, nonanemic women and compared to orally delivered iron supplementation.
In vivo tests were performed as follows: human iron-depleted (serum ferritin <16 μg/l), nonanemic (Hb >12 g/dl) women (18-33 yr old) were treated with either topical or oral iron supplementation for 6 weeks. Subjects trained for 30 min/day, 5 days/wk at 75-85% of maximum heart rate for the final 4 wk of the study. Trial design was built to assess this primary outcome: change in 15 km time from baseline to […]. Treatment groups randomized as follows: • a. Control group: oral placebo • b. Oral iron supplement group (100 mg of ferrous sulfate per day) • c. Topical iron supplement group (1.67 g of topical formulation applied daily) Formulations detailed in Table 6 below

[6] = tested on: human patients with chemotherapy-related anemia; assay: Topical vs oral vs intravenous iron in anemic cancer patients receiving darbepoetin alfa; conditions: 8 weeks, with darbepoetin alfa 500 mcg every 3 weeks; oral = sucrosomial iron 30 mg daily; IV = ferric gluconate 125 mg weekly; topical = 0.50 g Table 4 formulation daily
Experimental: In this experiment, iron (in the form of ferrous sulfate) in formulations of the invention was tested for its ability to help treat chemotherapy-induced anemia in cancer patients when combined with erythropoiesis-stimulating agents (ESAs), and compared to orally or intravenously delivered iron supplementation. […] Trial design was built to assess this primary outcome: Hb response as defined as the Hb increase ≥2 g/dL from baseline or the attainment Hb ≥12 g/dL. Treatment groups randomized as follows: • a. Oral iron supplement group (sucrosomial iron 30 mg daily) • b. […] Topical iron supplement group (0.50 g of topical formulation applied daily) Formulations detailed in Table 4 below

For iron sucrose, the “serum ferritin levels versus oral” value ([1]; comparator oral ferrous sulphate 200 mg tds, intravenous = iron sucrose 300 mg monthly, topical = 3.34 g Table 1 formulation tds) was “statistical significantly higher”, the “allergic reactions reported, share of patients” value ([1]; human, in vivo) was 10% and the “serum ferritin levels, topical versus intravenous” value ([1]; intravenous = iron sucrose 300 mg monthly, topical = 3.34 g Table 1 formulation tds) was “not statistically different”. For the same compound, the change in hemoglobin ([2]; pregnant women, 14 to 34 weeks of pregnancy, oral = ferrous fumarate 200 mg per day, intravenous = iron sucrose 200 mg per day, topical = 3.34 g Table 3 formulation per day) was 22 ± 11.5 g/L and the “patients with increase in ferritin level between 51 to 100 ng/ml” value ([2]; same arms as E9) was 48%.
With ferric carboxymaltose the treatment-related adverse events [3] was 2.7%, the “median Hb after treatment (week 12)” value ([4]; 12 weeks, same arms as E16) was 12.3 g/dL and the “median Hb at baseline” value ([4]; before treatment, oral = FeSulf 100 mg ferrous iron b.i.d., IV = ferric carboxymaltose (Ganzoni dose), topical = 1.67 g Table 5 formulation b.i.d.) was 8.7 g/dL.
With `O=S(=O)([O-])[O-].[Fe+2]` [ferrous sulphate] the “allergic reactions reported, share of patients” value ([1]; oral = ferrous sulphate, intravenous = iron sucrose, transdermal = Table 1 formulation) was “none”, the “decrease in 15-km time vs the placebo control group” value ([5]; topical = 1.67 g Table 6 formulation daily) was “statistically significantly greater” and the “decrease in 15-km time, oral versus transdermal” value ([5]; transdermal = 1.67 g Table 6 formulation daily) was “no statistical difference”.
With ferric gluconate the “patients achieving an erythropoietic (Hb) response: Hb increase ≥2 g/dL from baseline or Hb ≥12 g/dL” value [6] was “Seventy one”.
With `O=C([O-])/C=C/C(=O)[O-].[Fe+2]` [ferrous fumarate] the “participants with an improvement in hemoglobin more than 20 g/L” value ([2]; same arms as E9) was 11%.
